We go through five molecules from patent US11414663B2, “Micro-RNA profiling, compositions, and methods of treating diseases” (GOWEY RESEARCH GROUP, PLLC, priority 2010, dated 2022).

The test relates to miRNA. The test can be described thus: Pre and post microRNA profiles of patients after spine injections of rate limiters. It counts as in vivo, human. The note with it: for Impact on genome using spine injections: spine injections in patients, pre vs post miRNA profiles.

On to `N[C@@H](CS)C(=O)O` [Cysteine], for which the “Impact on genome using spine injections” value was “Increases ail miRNA”.

For `N[C@@H](CCC(=O)N[C@@H](CS)C(=O)NCC(=O)O)C(=O)O` [Glutathione], the “Impact on genome using spine injections” value is on record as “Decrease all miRNA”.

As for `[Mg+2]` [Magnesium], the “Impact on genome using spine injections” value is “Increases all miRNA”. The same measure, in the same setting: for `[Se]` [Selenium] the value was “Increases ail miRNA”. Regarding `[Zn]` [Zinc], the “Impact on genome using spine injections” value is reported as “Decrease all miRNA except miR-486”. Besides, for the setting “spine injections, all other miRNA levels lowered”, the “miR-486 level, pre-treatment vs post-treatment profile” value is given as “miR-486 had increased”.
